Series [1] is described as follows: Particle size distribution measured using the Aerosizer with Pulse Jet Disperser. It counts as physicochemical. To be noted: average of three measurements. From the text:
The Pulse Jet Disperser device (Amherst Processing Instruments) was used for powder dispersion. Three measurements were made for each sample and the results were averaged.

A short description of series [2]: Relative sintering rates under high relative humidity. To be noted: about 23° C., about one day of exposure, compared with lactose. It counts as physicochemical. Here is the method: Two experiments were carried out, one at about 85% relative humidity and another at about 95% relative humidity. The experiments ran over several days, but the largest increment occurs fairly early. Both experiments were carried out at room temperature (about 23° C.). […] Sintering of cellobiose is slower. […].

As to `O=C[C@H](O)[C@@H](O)[C@H](O[C@@H]1O[C@H](CO)[C@@H](O)[C@H](O)[C@H]1O)[C@H](O)CO` [Cellobiose, cellobiose], in series [1], the “Mean Particle Size” value was determined as 2.032 μm. For the same compound, the “Relative sintering rate (difference in number fraction Δf versus particle diameter)” value in series [2] (approximately 85% relative humidity) and in series [2] (approximately 93% relative humidity) was “slower” throughout.
For the compound `O.OC[C@H]1O[C@@H](O[C@H]2[C@H](O)[C@@H](O)C(O)O[C@@H]2CO)[C@H](O)[C@@H](O)[C@H]1O` (stereo partly shown) [Lactose, lactose monohydrate, reference compound], in series [1], the “Mean Particle Size” value was determined as 2.044 μm.

The record behind these values is US6482429B1, “Stable powder inhalation dosage formulation” (Boehringer Ingelheim Pharmaceuticals, Inc., priority 2001, dated 2002).
